Test results: patent publication US8466167B2, “Compounds and compositions as TLR activity modulators” (IRM LLC, priority 2008, dated 2013)
Like-named read-outs stand apart in the source and are kept apart here.

What was measured:
[1] = target: T1, human TLR7 (Homo sapiens, UniProt Q9NYK1); assay: Reporter gene assay, HEK293-TLR7 (NF-kB-driven luciferase); type: cell-based
T1 construct: expressed in transfected cells; host or cells: HEK 293
T1 sequence (Q9NYK1 27-1049): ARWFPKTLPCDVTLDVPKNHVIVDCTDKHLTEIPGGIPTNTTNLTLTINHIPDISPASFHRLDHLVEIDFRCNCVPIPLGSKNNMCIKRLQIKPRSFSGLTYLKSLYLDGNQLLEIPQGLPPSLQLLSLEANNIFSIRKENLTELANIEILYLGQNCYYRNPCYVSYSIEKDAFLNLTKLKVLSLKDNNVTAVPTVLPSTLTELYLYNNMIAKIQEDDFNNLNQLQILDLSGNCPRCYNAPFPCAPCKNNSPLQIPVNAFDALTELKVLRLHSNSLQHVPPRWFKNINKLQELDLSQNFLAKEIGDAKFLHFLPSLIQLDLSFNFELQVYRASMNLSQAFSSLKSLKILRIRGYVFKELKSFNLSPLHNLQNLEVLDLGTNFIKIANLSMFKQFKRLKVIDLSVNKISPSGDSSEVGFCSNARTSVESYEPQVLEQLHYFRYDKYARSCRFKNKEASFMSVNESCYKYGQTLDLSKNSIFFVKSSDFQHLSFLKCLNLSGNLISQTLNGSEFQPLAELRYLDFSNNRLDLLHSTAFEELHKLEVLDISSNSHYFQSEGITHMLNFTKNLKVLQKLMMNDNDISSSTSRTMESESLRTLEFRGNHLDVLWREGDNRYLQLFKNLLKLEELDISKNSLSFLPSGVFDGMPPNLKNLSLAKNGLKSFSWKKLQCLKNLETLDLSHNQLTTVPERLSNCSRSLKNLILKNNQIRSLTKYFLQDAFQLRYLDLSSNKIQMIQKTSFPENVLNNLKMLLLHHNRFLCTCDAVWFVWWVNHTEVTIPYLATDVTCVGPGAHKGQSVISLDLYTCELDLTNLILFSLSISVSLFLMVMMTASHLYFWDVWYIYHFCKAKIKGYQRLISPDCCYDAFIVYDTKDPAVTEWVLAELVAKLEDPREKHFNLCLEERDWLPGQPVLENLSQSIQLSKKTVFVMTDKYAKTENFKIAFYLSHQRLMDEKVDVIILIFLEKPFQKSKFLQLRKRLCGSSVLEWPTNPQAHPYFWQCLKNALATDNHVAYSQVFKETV
Experimental: (§1) Human embryonic kidney 293 (HEK 293) cells are stably transfected with human TLR7 or TLR8 and an NF-kB-driven luciferase reporter vector (pNifty-Luciferase). As a control assay, normal Hek293 transfected with pNifty-Luc are used. Cells are cultured in DMEM supplemented with 2 mM L-glutamine, 10% heart inactivated FBS, 1% penicillin and streptomycin, 2 μg/ml puromycin (InvivoGen #ant-pr-5) and 5 μg/ml of blasticidin (Invitrogen #46-1120). Bright-Glo™ Luciferase assay buffer and substrate are supplied by Promega #E263B and #E264B (assay substrate and buffer respectively). 384 well clear-bottom plates are supplied by Greiner bio-one (#789163-G) and are GNF custom bar-coded plates.
(§2) Cells are plated at 25,000 cells/well in 384-well plates in a final volume of 50 μl of media. Cells are allowed to adhere to the plates after overnight (18 hours) culture at 37° C. 5% CO2. Serially diluted experimental and positive control compounds are then dispensed to each well and incubated for 7 hours at 37° C. 5% CO2. Cells stimulated with DMSO alone also serve as negative controls. After the incubation, 30 μl of the pre-mix assay buffer and substrate buffer are added to each well according to manufacturer's instructions. The luminescence signal is read on a CLIPR machine with an integration time of 20 seconds per plate.
(§3) Dose response curves are generated for each compound and EC50 values were determined as the concentration that gives 50% of the maximal signal.

[2] = target: T2, human TLR8 (Homo sapiens, UniProt Q9NR97); assay: Reporter gene assay, HEK293-TLR8 (NF-kB-driven luciferase); type: cell-based; conditions: HEK293-TLR8; read-out: EC50 in HEK293-TLR8 assay
T2 construct: expressed in transfected cells; host or cells: HEK 293
T2 sequence (Q9NR97 27-1041): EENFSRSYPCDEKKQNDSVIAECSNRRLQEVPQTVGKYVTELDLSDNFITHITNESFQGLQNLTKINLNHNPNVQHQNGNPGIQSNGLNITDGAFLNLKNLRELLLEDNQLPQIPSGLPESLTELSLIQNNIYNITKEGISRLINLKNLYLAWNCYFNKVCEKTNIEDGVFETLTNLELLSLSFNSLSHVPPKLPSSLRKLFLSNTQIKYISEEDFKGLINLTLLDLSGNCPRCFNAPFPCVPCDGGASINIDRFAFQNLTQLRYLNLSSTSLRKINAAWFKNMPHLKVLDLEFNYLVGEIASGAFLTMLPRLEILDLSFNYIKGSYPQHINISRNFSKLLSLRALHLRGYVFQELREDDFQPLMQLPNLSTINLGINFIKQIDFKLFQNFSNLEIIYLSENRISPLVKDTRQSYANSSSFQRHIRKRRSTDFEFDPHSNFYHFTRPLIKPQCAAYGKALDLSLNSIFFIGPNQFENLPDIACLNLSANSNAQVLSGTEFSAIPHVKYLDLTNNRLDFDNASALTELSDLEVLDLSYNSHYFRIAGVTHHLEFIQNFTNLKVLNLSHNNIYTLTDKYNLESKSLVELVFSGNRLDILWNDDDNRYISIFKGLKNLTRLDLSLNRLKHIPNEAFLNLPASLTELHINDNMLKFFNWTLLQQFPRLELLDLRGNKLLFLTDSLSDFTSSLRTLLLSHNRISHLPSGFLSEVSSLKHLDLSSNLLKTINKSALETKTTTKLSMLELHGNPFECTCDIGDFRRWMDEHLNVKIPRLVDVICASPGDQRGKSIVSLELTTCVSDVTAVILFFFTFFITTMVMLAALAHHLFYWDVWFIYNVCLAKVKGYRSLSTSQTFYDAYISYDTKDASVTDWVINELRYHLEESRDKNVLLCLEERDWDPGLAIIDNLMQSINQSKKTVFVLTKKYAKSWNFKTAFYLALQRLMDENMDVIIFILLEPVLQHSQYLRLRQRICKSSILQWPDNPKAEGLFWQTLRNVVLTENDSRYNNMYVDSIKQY
Experimental: as §1, §2, §3

[3] = test system: human PBMC; assay: Human peripheral blood mononuclear cell assay, IL-6 (IL-6 hPBMC); type: cell-based; conditions: IL-6 levels
Experimental: The bioactivity of the described compounds are tested in the human peripheral blood assay (human PBMC) using a panel of independent normal human donors according to approved guidelines by the institutional review committee. Human PBMC are isolated from freshly peripheral blood using a Ficoll density gradient (GE healthcare 17-1440-03). 30-35 mLs of peripheral human blood are layered onto 15 mLs of Ficoll in 50 ml conical tubes, followed by centrifugation at 1800 rpm (Eppendorf Centrifuge 5810R with biohazard caps over the tube buckets) at room temperature for 30 minutes with no acceleration and no brake. The buffy layers are then collected and transferred onto new 50 ml conical tubes and washed twice in complete media consisting of RAMI 1640 (11875085 from Invitrogen Corporation, Carlsbad, Calif.) supplemented with 10% heat inactivated fetal bovine serum (Gibco 10099-141), 1% Pen-Strep (Gibco#15140-122), 1 mM non essential amino acids (Gibco#11140-050), 1 mM sodium pyruvate (Gibco#11360-070), 2 mM L-Glutamine (Gibco#25030-081) and 1 mM HEPES (Gibco#15630-080). Viable cells are then counted using trypan blue staining, plated in 96 well flat bottom plates (Becton Dickinson #353070) at 2×10^5 cells per well in 200 μl total volume of complete media. Compounds are then added in a 10 point dose response format starting at 100 μM, 3 fold dilution. Negative controls wells received equal concentration of DMSO. Culture supernatants are collected after 18-24 hours incubation at 37° C., 5% CO2, stored at −20° C. until further use.
IL-6 levels in the culture supernatants are measured using a Luminex kit (Biorad). Data analysis is performed using Prism software from GraphPad (San Diego, Calif.). Dose response curves are generated for each compound and EC50 values are determined as the concentration that gives 50% of the maximal signal.

[4] = test system: N. meningitidis serogroup B strain NZ98; assay: In vivo enhancement of immune response to 3MenB vaccine, serum bactericidal antibody (SBA) titer; conditions: for protective response in the mice (SBA titer of >1000 correlates with protection): 100 μg compound with 3MenB/MF59, NZ98 strain
Experimental: In a second experiment, the dose response of one compound, Example No. 47, was tested using the same protocol. […] The SBA titers were measured in all cases using the standard CFU method. The dose of each compound in μg is indicated on the left of FIG. 2.
FIG. 5 summarizes the data from the six total experiments. A titer of >1000 correlates with immunization providing protection against the pathogen tested in the SBA titer (i.e., the NZ/98 N. meningitidis serogroup B strain).

[5] = HEK293-TLR7, read-out: EC50 in HEK293-TLR7 assay

Compound	EC50 [1, 5] [µM]	EC50 [2] [µM]	EC50 [3] [µM]	EC50 ([1]; TLR-7 stimulation, read-out: Human TLR-7 EC50) [µM]	protective response in the mice (SBA titer of >1000 correlates with protection) [4]	difference in SBA titer, immunization with a CpG oligo versus the compound ([4]; mice, by p-value)
Nc1nc2ccccc2c2cccnc12 [Example 1, Benzo[f][1,7]naphthyridin-5-amine]	> 100	14	0.84			
Cc1ccc2c(c1)nc(N)c1ncccc12 [Example 5, 8-methylbenzo[f][1,7]naphthyridin-5-amine]	15.8	9.01	0.396			
Nc1nc2cc(F)ccc2c2cccnc12 [Example 14, 8-fluorobenzo[f][1,7]naphthyridin-5-amine]		37	6.38			
CCc1cnc2c(N)nc3ccccc3c2c1 [Example 30, 2-ethylbenzo[f][1,7]naphthyridin-5-amine]	8.64	13	2.28			
Nc1nc2ccccc2c2cc(CCc3ccccc3)cnc12 [Example 33, 2-phenethylbenzo[f][1,7]naphthyridin-5-amine]	2.44		2.28			
Cc1ccc(CCc2cnc3c(N)nc4ccccc4c3c2)c(C)c1 [Example 47, 2-(2,4-dimethylphenethyl)benzo[f][1,7]naphthyridin-5-amine]				0.361	protective response	did not produce a statistically significant difference
COc1ccc(CCc2cnc3c(N)nc4cc(C)ccc4c3c2)c(C)c1 [Example 49, 2-(4-methoxy-2-methylphenethyl)-8-methylbenzo[f][1,7]naphthyridin-5-amine]					protective response	
Cc1ccc2c(c1)nc(N)c1ncc(CCc3ccc(N(C)C)cc3)cc12 [Example 169, 2-(4-(dimethylamino)phenethyl)-8-methylbenzo[f][1,7]naphthyridin-5-amine]					protective response	
